Legend:
[1] = tested on: MK-801-induced overactivity; experiment: MK-801-induced overactivity in mice, kinetic momentum by infrared sensor; format: in vivo; details: mouse, oral, dose 0.01 mg/kg; MK-801 0.3 mg/kg i.p.; total 60 minutes, P<0.05
Description: Evaluation of Various Drugs Relative to a Drug for Increasing the Kinetic Momentum of Mice (Methane Phetamine, MK-801) (Method for Measuring a Kinetic Momentum by Discharge of an Infrared Ray)
The effect of improving the positive symptoms and the negative symptoms of schizophrenia by the compound (I) was evaluated by measuring the kinetic momentum that had been […] with administration of the compound in a model causing the symptoms by methane phetamine (which is hereinafter simply referred to as MAP) and MK-801.
Species: Male ICR mouse/number of animals (number of animals per group): 8 to 12 animals per group
The animal was left in a laboratory for 1 hour or longer to be acclimated to the environment, and the animal was taken from the feeding cage, orally administered with a compound to be tested, and then returned to the feeding cage. After 30 minutes, it was put into a cage for measurement, and the kinetic momentum of just the compound to be tested was measured. Further, after 30 minutes, the animal was taken out, and intraperitoneally administered with a drug for increasing kinetic momentum (MAP; 1 mg/kg or MK-801; 0.3 mg/kg, all dissolved in physiological saline), and its kinetic momentum was measured for a certain time (60 minutes) using a device for measuring the kinetic momentum by means of an infrared ray sensor (CompACT AMS, Muromachi Kikai Co., Ltd.). Also, the test was carried out under non-fasting.
The 60 minutes of measurements was classified into three groups: a first half 30 minutes, a second half 30 minutes, and a total 60 minutes. For a normal mouse (a mouse administered with physiological saline) and a mouse administered with the drug for increasing kinetic momentum, a Student's T test was used for evaluation in each interval. For the group administered with the compound to be tested, a solvent (vehicle) group and a Dunnett's T test were carried out and evaluated. For the evaluation, in case where there was a significant (P<0.05) difference for the total 60 minutes, it was considered to be effective.

[2] = target: T1, human 5-HT5A receptor (Homo sapiens, UniProt P47898); experiment: Test of human 5-HT5A receptor binding inhibition ([3H]5-CT, HEK293 cell membrane); details: [3H]5-CT binding, membrane of HEK293 cell expressing human 5-HT5A receptor
T1 construct: expressed in transfected cells; membrane preparation
T1 sequence (P47898 whole entry): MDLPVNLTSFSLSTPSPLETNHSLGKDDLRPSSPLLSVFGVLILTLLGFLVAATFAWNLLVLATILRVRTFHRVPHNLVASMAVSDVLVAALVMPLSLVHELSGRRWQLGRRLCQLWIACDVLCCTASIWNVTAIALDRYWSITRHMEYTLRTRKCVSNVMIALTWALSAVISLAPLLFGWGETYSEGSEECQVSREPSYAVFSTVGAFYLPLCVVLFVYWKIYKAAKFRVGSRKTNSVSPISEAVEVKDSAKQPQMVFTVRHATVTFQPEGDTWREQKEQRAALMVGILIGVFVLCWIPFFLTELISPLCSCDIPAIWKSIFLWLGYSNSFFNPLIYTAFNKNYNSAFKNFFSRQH
Description: An ORF of a human 5-HT5A receptor (Genbank AF498985) was cloned from a human hippocampal cDNA library, and then inserted into a pCR2.1 vector (Invitrogen), and Escherichia coli having the plasmid was mass cultured. Next, the human 5-HT5A receptor full-length cDNA sequence was analyzed, recombined into a pCDNA3.1 vector (Invitrogen) as an expression vector, and mass cultured. A human embryonic kidney-induced cell HEK293 cell (ATCC) was seeded, and the resulting expression plasmid (1 μg) above was added thereto together with LIPOFECTAMINE 2000 (Invitrogen; 2 μl), a gene was introduced into the HEK293 cell, and then Geneticin (G418 sulfate 500 μg/ml; Kanto Chemical Co., Inc.) was used as a drug-resistant marker to screen the expressing cell. Thus prepared gene-expressing recombinant cell was cultured in a D-MEM, 10% FCS, 1% Pc./Sm., 500 μg/ml G418 culture medium for 3 days. This experimental operation was conducted in accordance with a gene operation experiment manual of a known method (Sambrook, J. et al, Molecular Cloning-A Laboratory Manual“, Cold Spring Harabor Laboratory, NY, 1989), etc., an instruction appended in a reagent or the like.
(1) Preparation of a Membrane from an HEK293 Cell Forcibly Expressing a Human 5-HT5A Receptor
An HEK293 cell forcibly expressing a human 5-HT5A receptor was cultured in an F500 plate, and scraped for collection using a scraper. After centrifugation, the precipitates were collected and an incubation buffer (50 mM Tris (HCl) PH 7.4, 10 mM Mg504, 0.5 mM EDTA) was added thereto. After homogenization, it was further centrifuged, an incubation buffer was added to the precipitate, and the mixture was well suspended. These operations were repeatedly conducted, the protein concentration was then measured, and the preparation of a membrane was completed.
(2) Experiment on Human 5-HT5A Receptor Binding Inhibition
The compound to be tested (0.3 to 300 nM) and a 100 μM 5-CT solution in DMSO were added to a 96-well plate at 2 μl/well. The number of the wells to be measured under the same condition in one experiment was set at 2, and an average value thereof was used. It was suspended in an incubation buffer, and a HEK293 cell membrane forcibly expressing a human 5-HT5A receptor that had been prepared at 200 μg/ml was added thereto at 100 μl/well. The mixture was incubated at room temperature for 15 minutes, and a [^3H]5-CT solution (2 nM [^3H]5-CT, an incubation buffer) was then added thereto at 100 μl/well.
Separate from this, 100 μl of the solution was dispersed to a liquid scintillation vial, 2 ml of Aquasol II (registered trademark) was added thereto, followed by stirring, and the radioactivity was then measured with a liquid scintillation counter. The solution was incubated at 37° C. for 60 minutes. The reaction liquid was sucked to a 96-well GF/C filter plate that had been preliminarily treated with 0.2% polyethyleneimine, and washed six times with an ice-cooled 50 mM Tris (pH 7.5) buffer. The GF/C filter plate was dried.
MicroscintTMPS (registered trademark) was added thereto at 40 μl/well. The radioactivity remaining on the GF/C filter plate was measured in a top counter.
For the inhibitory activity for the binding of the [^3H]5-CT by the compound to be tested in each experiment, IC50 value was calculated by taking the radioactivity when only DMSO was added as 0% inhibition, and the radioactivity when 1 μM 5-CT was added as 100% inhibition. Apart from this, a Ki value was calculated from the Kd value of the [^3H]5-CT that had been determined by Scatchard analysis.
Ki=IC50 (1+Concentration of the ligands added/Kd (4.95 nM))

Row | Ki [2] [nM] | SMILES | inhibition of MK-801-induced overactivity [1]
1 | 0.51 | NC(N)=NC(=O)c1ccc2c3ccccc3n(C3CCOCC3)c2c1 [Example 25] | significantly inhibited
2 | ≤ 50 | CC(C)n1c2cc(C(=O)N=C(N)N)ccc2c2c(CO)cccc21 [Example 65] | significantly inhibited

— US20100324017A1, “ACYLGUANIDINE DERIVATIVE” (priority 2007, published 2010)
